Measured values as given in patent US7772255B2, “Method of treating tumors with azaxanthones” (Supratek Pharma, Inc., priority 2005, dated 2010).

How the values were obtained:
CSML100 cells [1] = test: S100A4-positive lung metastasis tumor model, alone or in combinations (Example 25); type: in vivo, mouse; settings: CSML100 i.v. in A/J mice, 10 days, mean±SEM
Protocol: Amlexanox solution for injections was prepared according to the Example 4. […] The animals were then divided randomly into 9 groups (n=9 except for control group): 1) intact control (n=13, saline); 2) Amlexanox (i.v. 100 mg/kg); 3) Amlexanox ([…]. 3 mg/kg); 5) Amlexanox ([…]. […] 10 mg/kg). […] The treatments were started on the day following the tumor cell implantation and continued for 10 consecutive days. […] The animal body weight was recorded as an index of treatment toxicity during the experiment. […] The data are expressed as mean±SEM for the number of metastatic sites on the lung surface.

[2] = system: metastatic (Stage III-IV) breast cancer; test: Amlexanox in women with metastatic breast cancer whose primary tumors are removed surgically (Example 7); type: in vivo, human; settings: 500 mg orally twice a day; baseline until nine months after administration and follow-up
Protocol: In this study, 44 women with metastatic (Stage III-IV) breast cancer whose primary tumors are removed surgically are treated by orally administering 500 mg amlexanox twice a day. The total dose, per patient, is 1,000 mg daily. Baseline assessments are performed at the start of the treatment (treated group) and these baseline results are compared with repeat assessments during various follow-up periods of this treatment. The treatment is conducted for at least ten consecutive days and it is continued further until substantial progression of the disease is noted. The study, which includes treatment of all patients and their follow-up, lasts for at least nine months or until disease progression in the last patient with responding or stable disease. […] In carrying out this study, the response rate and one year survival data for each of the patients in the treated group is determined and compared with an untreated group. […] If there is a delay of the substantial progression of the disease, then treatment is stopped when it is determined that substantial progression of the disease in that patient resumes. […] One week after the first administration of amlexanox, patients are clinically evaluated (adverse event review, concomitant medication and concurrent illness) and the following laboratory evaluations are conducted: hematology, blood chemistry and urinalysis. […]

CSML100 cells [3] = test: Spontaneous metastasis model in mice (Example 27); type: in vivo, mouse
Protocol: Amlexanox solution for injections was prepared according to the Example 4. CSML100 cells (2.0×10^6 cells per animal) were inoculated subcutaneously to female A/J mice (6-7 weeks old). The animals were then divided randomly into 2 groups (n=9): Intact control (saline) and Amlexanox treated (100 mg/kg, daily i.v. injection for 10 consecutive days). The treatment started from the day following the tumor implantation. The measurement of tumor size was performed since day 11. On day 24, the tumors were surgically removed. The lung metastasis development was analyzed 40 days after the tumor resection.
The data in Table show spontaneous lung metastasis formation in this tumor model. The data are expressed as mean±SEM for the number of metastatic sites on the lung surface.

## CC(C)c1ccc2oc3nc(N)c(C(=O)O)cc3c(=O)c2c1 [Amlexanox, 2-amino-7-isopropyl-1-azaxanthone-3-carboxylic acid]
CSML100 cells [1]; Amlexanox i.v. 100 mg/kg daily
  Lung Metastasis Number per Animal: 29.6 ± 3.89
CSML100 cells [1]; Amlexanox p.o. 200 mg/kg daily
  Lung Metastasis Number per Animal: 26.2 ± 4.16
[2]
  percentage of patients with little or no progression of the disease, compared to the non-treated group: greater percentage of the patients in the group of patients treated with the amlexanox show little or no progression of the disease
CSML100 cells [3]; CSML100 s.c. in A/J mice, 100 mg/kg i.v. daily for 10 days, tumors removed day 24, mean±SEM, one animal (26 metastases) excluded
  Lung metastasis number 40 days after s.c. tumor resection: 1.00 ± 0.55
CSML100 cells [3]; CSML100 s.c. in A/J mice, 100 mg/kg i.v. daily injection for 10 days
  Subcutaneous tumor size on day 14: 0.05 ± 0.02 g
CSML100 cells [3]; lung metastasis number 40 days after s.c. tumor resection, 100 mg/kg i.v. daily for 10 days
  Trial/control × 100%: 96.3%
